Measured values from the NIST ThermoML archive (doi:10.1021/acs.jced.6b00750).

Experiment: xn = mol fraction of the nth substance listed
Settings: Liquid; for mass density: Vibrating wire densiometer; for viscosity: Vibrating wire viscometry

CCCCCCCCCCCCCCCC [hexadecane] + O=C=O
Settings	mass density [kg/m3]	viscosity [mPa·s]
298.14 K, 21810 kPa, x2 = 0.727	822.6	0.786
298.14 K, 22010 kPa, x2 = 0.727	822.8	0.787
298.14 K, 31030 kPa, x2 = 0.727	831.7	0.861
298.14 K, 41130 kPa, x2 = 0.727	840.7	0.943
298.16 K, 10920 kPa, x2 = 0.069	776.3	3.057
298.16 K, 11130 kPa, x2 = 0.069	776.5	3.075
298.16 K, 21440 kPa, x2 = 0.069	782.8	3.474
298.16 K, 30250 kPa, x2 = 0.069	787.6	3.87
298.18 K, 10440 kPa, x2 = 0.5877	802.3	1.003
298.18 K, 10670 kPa, x2 = 0.5877	802.7	0.998
298.18 K, 20560 kPa, x2 = 0.5877	811.8	1.107
298.18 K, 30070 kPa, x2 = 0.5877	819.7	1.219
298.18 K, 40380 kPa, x2 = 0.5877	827.4	1.344
323.12 K, 21230 kPa, x2 = 0.727	796.3	0.565
323.12 K, 21410 kPa, x2 = 0.727	796.3	0.565
323.12 K, 40330 kPa, x2 = 0.727	817.3	0.679
323.12 K, 60540 kPa, x2 = 0.727	835.2	0.806
323.12 K, 80280 kPa, x2 = 0.727	850.1	0.93
323.12 K, 100230 kPa, x2 = 0.727	863.2	1.064
323.12 K, 119920 kPa, x2 = 0.727	874.7	1.204
323.15 K, 10410 kPa, x2 = 0.069	759.1	1.83
323.15 K, 10420 kPa, x2 = 0.069	759.2	1.827
323.15 K, 10630 kPa, x2 = 0.5877	779	0.704
323.15 K, 10860 kPa, x2 = 0.5877	779.5	0.703
323.15 K, 20230 kPa, x2 = 0.069	765.7	2.061
323.15 K, 20850 kPa, x2 = 0.5877	790.2	0.786
323.15 K, 40110 kPa, x2 = 0.5877	807.6	0.947
323.15 K, 40860 kPa, x2 = 0.069	778.3	2.56
323.15 K, 60100 kPa, x2 = 0.5877	822.7	1.122
323.15 K, 60910 kPa, x2 = 0.069	788.7	3.13
323.15 K, 80840 kPa, x2 = 0.069	798.2	3.755
323.15 K, 99870 kPa, x2 = 0.069	806	4.474
373.08 K, 10380 kPa, x2 = 0.069	726.3	0.927
373.08 K, 12120 kPa, x2 = 0.069	728	0.947
373.08 K, 21470 kPa, x2 = 0.069	735.9	1.048
373.08 K, 26470 kPa, x2 = 0.727	752.5	0.365
373.08 K, 26600 kPa, x2 = 0.727	752.7	0.365
373.08 K, 40330 kPa, x2 = 0.069	749.9	1.263
373.08 K, 40830 kPa, x2 = 0.727	773	0.424
373.08 K, 60000 kPa, x2 = 0.727	794.6	0.503
373.08 K, 60300 kPa, x2 = 0.069	762.5	1.514
